System: U937 cell line (human histiocytic lymphoma cell line)
Assay: U937 cell viability assay (TNF-α + Z-VAD-FMK induced necroptosis)
Format: cell-based
Details: Homo sapiens, U-937; U937 cells, hTNF-α 0.1 μg/mL + Z-VAD-FMK 50 μM, 20 hours, CellTiter-Glo
Procedure: U937 cell line (human histiocytic lymphoma cell line): purchased from ATCC (American Type Culture Collection) Cell Bank, cultured in a 5% CO2, 37° C. incubator, and RPMI 1640 medium which contains L-glutamine, 1.5 g/L sodium bicarbonate, 2.383 g/L HEPES solution, 0.11 g/L sodium pyruvate and 4.5 g/L glucose, plus 10% fetal bovine serum (FBS) was used. • RPMI 1640 medium: GIBCO, Cat #A10491-01; • Fetal bovine serum (FBS): GIBCO, Cat #10099-141C; • Dimethyl sulfoxide (DMSO): Sigma, Cat #D2650; • Recombinant Human TNF-alpha Protein (hTNF-α): R&D system, Cat #210-TA-100; • Pan-Caspase inhibitor (Z-VAD-FMK): Selleckchem, Cat #S7023; • CellTiter-Glo 2.0 Cell Viability Assay kit: Promega, Cat #G9242; • Microwell plate reader: Envision, Perkin Elmer; • 96-well plate: Corning, Cat #3917.
The U937 cells at the logarithmic phase were taken out, centrifuged to remove the medium, washed with PRMI 1640 medium containing 1% FBS, and diluted with 1% FBS-containing RPMI 1640 medium to 2.5×10^5 cells/ml, inoculated at 70 μL/well into a 96-well plate, i.e., 1.75×10^4 cells/well. The plate was cultured in a 5% CO2, 37° C. cell incubator. After incubating for 1 hour, the test compound was diluted to the corresponding concentrations using DMSO with 3-fold serial dilution, then the corresponding concentration of DMSO diluted solution was diluted into 1% FBS-containing RPMI 1640 medium, and 10 μL/well of the diluted test compound with different concentrations (final concentration of test compound was 1.0, 0.333, 0.111, 0.037, 0.012, 0.004, 0.0014 and 0.0005 μM, while final concentration of DMSO was 0.3%) or 10 μL/well control solution (3% DMSO) were added to the cell culture system respectively, with the total volume being 80 μL/well; Then 10 μL of Z-VAD-FMK solution diluted with 1% FBS-containing RPMI 1640 medium (final concentration of 50 μM) or 10 μL of control solution (2.5% DMSO) was added to each well, with the total volume being 90 μL/well. The plate was incubated in a 5% CO2, 37° C. cell culture incubator for 1 hour.
After being cultured for 1 hour, 10 μL of human recombinant TNF-α protein diluted with 1% FBS-containing RPMI 1640 medium (final concentration of 0.1 μg/mL) or 10 μL/well control solution (1% FBS-containing RPMI 1640 medium) was added to each well. The plate was incubated in a 5% CO2, 37° C. cell culture incubator for 20 hours.
The cell culture plate was taken out from the incubator, and left to stand at room temperature for 30 minutes. Meanwhile, CellTiter-Glo viability assay kit was put from freezer to room temperature, and 50 μL of CellTiter-Glo reagent was added to all wells, the plate was shaken for 1 minutes, protected from light at room temperature for 10 minutes then read the plate on Envision to get the luminescence signal.
The 96-well plate in the dark was taken out, and the chemiluminescence was determined using the Envision microwell plate reader as the signal value of each well.
The mean signal value of the wells of the mixed solution of recombinant human TNF-alpha protein (final concentration of 0.1 μg/mL) and Pan-Caspase inhibitor (final concentration of 50 μM) was used as the lower value, and the mean signal value of the wells without stimulation was used as the upper value. According to the signal value of each well, the inhibition rate of each concentration of every compound was calculated, and the IC50 value of compound was obtained by Model 205 in XL-Fit 5.3 software (ID Business Solutions Limited).
Inhibition rate %=[(Luminescence readout of treated compound−Luminescence readout of positive control)/(Luminescence readout of negative control−Luminescence readout of positive control)]×100%, wherein

Row | SMILES | IC50
1 | CC(C)n1ncc2cnc(C(=O)NC3(c4ccc(-c5cncn(C6CCC6)c5=O)cc4)CC3)nc21 [Compound 42] | 7 nM
2 | CC[C@H](C)n1cncc(-c2ccc(C3(NC(=O)c4ncc5cnn(C(C)C)c5n4)CC3)cc2)c1=O [Compound 43] | 2 nM
3 | CC[C@@H](C)n1cncc(-c2ccc(C3(NC(=O)c4ncc5cnn(C(C)C)c5n4)CC3)cc2)c1=O [Compound 44] | 2 nM
4 | CC(C)Cn1cncc(-c2ccc(C3(NC(=O)c4ncc5cnn(C(C)C)c5n4)CC3)cc2)c1=O [Compound 45] | 2 nM
5 | Cn1cncc(-c2ccc(C3(NC(=O)c4nc5n(n4)[C@@H](c4ccccc4)CC5)CC3)cc2)c1=O [Compound 54, (R)—N-(1-(4-(1-methyl-6-oxo-1,6-dihydropyrimidin-5-yl)phenyl)cyclopropyl)-5-phenyl-6,7-dihydro-5H-pyrrolo[1,2-b][1,2,4]triazole-2-carboxamide] | 12 nM
6 | C[C@H](c1ccccc1)n1cnc(C(=O)NC2(c3ccc(-c4cncn(C)c4=O)cc3)CC2)n1 [Compound 55, (R)—N-(1-(4-(1-methyl-6-oxo-1,6-dihydropyrimidin-5-yl)phenyl)cyclopropyl)-1-(1-phenylethyl)-1H-1,2,4-triazole-3-carboxamide] | 7 nM
7 | CC(C)n1cncc(-c2ccc(C3(NC(=O)c4ncc5cnn(C6COC6)c5n4)CC3)cc2)c1=O [Compound 60] | 66 nM
8 | CC(C)n1cncc(-c2ccc(C3(NC(=O)c4ncc5cnn(CC6CC6)c5n4)CC3)cc2)c1=O [Compound 61] | 3 nM
9 | CC(C)n1cncc(-c2ccc(C3(NC(=O)c4ncc5cnn(CC6CCC6)c5n4)CC3)cc2)c1=O [Compound 62] | 2 nM
10 | CC(C)n1cncc(-c2ccc(C3(NC(=O)c4ncc5cnn(-c6ccccn6)c5n4)CC3)cc2)c1=O [Compound 63] | 51 nM
11 | O=C(NC1(c2ccc(-c3cncn(CC4CC4)c3=O)cc2)CC1)c1ncc2cnn(CC3CC3)c2n1 [Compound 64] | 2 nM
12 | CC(C)n1ncc2cnc(C(=O)NC3(c4ccc(-c5cncn(C6CC(F)(F)C6)c5=O)cc4)CC3)nc21 [Compound 65] | 7 nM
13 | CC(C)n1ncc2cnc(C(=O)NC3(c4ccc(-c5cncn(CC6CCC6)c5=O)cc4)CC3)nc21 [Compound 66] | 3 nM
14 | CC(C)n1ncc2cnc(C(=O)NC3(c4ccc(-c5cncn([C@H]6C[C@@H]6F)c5=O)cc4)CC3)nc21 [Compound 67] | 91 nM
15 | C[C@H](n1cncc(-c2ccc(C3(NC(=O)c4ncc5cnn(CC6CC6)c5n4)CC3)cc2)c1=O)C(F)(F)F [Compound 68] | 6 nM
16 | CC(C)n1ncc2cnc(C(=O)NC3(c4ccc(-c5cncn([C@@H]6C[C@@H]6F)c5=O)cc4)CC3)nc21 [Compound 69] | 9 nM
17 | C[C@@H](n1cncc(-c2ccc(C3(NC(=O)c4ncc5cnn(CC6CC6)c5n4)CC3)cc2)c1=O)C(F)(F)F [Compound 70] | 2 nM
18 | C[C@H](n1cncc(-c2ccc(C3(NC(=O)c4ncc5cnn(CC6CC6)c5n4)CC3)c(F)c2)c1=O)C(F)(F)F [Compound 71] | 3 nM
19 | CC(C)n1cncc(-c2ccc(C3(NC(=O)c4ncc5cnn(CC6CC6)c5n4)CC3)c(F)c2)c1=O [Compound 72] | 2 nM

Row | SMILES | IC50
20 | CC(C)n1cncc(-c2ccc(C3(NC(=O)c4ncc5cnn(CC6CC6)c5n4)CC3)cc2F)c1=O [Compound 73] | 2 nM
21 | CC(C)n1ncc2cnc(C(=O)NC3(c4ccc(-c5cncn(CC6CC6)c5=O)cc4F)CC3)nc21 [Compound 74] | 1 nM
22 | CC(C)n1ncc2cnc(C(=O)NC3(c4ccc(-c5cncn(CC6CC6)c5=O)c(F)c4)CC3)nc21 [Compound 75] | 2 nM
23 | C[C@@H](n1cncc(-c2ccc(C3(NC(=O)c4ncc5cnn(CC6CC6)c5n4)CC3)c(F)c2)c1=O)C(F)(F)F [Compound 76] | 3 nM
24 | CC(C)n1ncc2cnc(C(=O)NC3(c4ccc(-c5cncn(C6CCOCC6)c5=O)cc4)CC3)nc21 [Compound 77] | 10 nM
25 | CC(C)n1ncc2cnc(C(=O)NC3(c4ccc(-c5cncn(C6(C)CC6)c5=O)cc4)CC3)nc21 [Compound 78] | 8 nM
26 | CC(C)n1ncc2cnc(C(=O)NC3(c4ccc(-c5cncn(C6(C)CCC6)c5=O)cc4)CC3)nc21 [Compound 79] | 2 nM
27 | CC(C)n1ncc2cnc(C(=O)NC3(c4ccc(-c5cncn([C@H](C)C6CC6)c5=O)cc4)CC3)nc21 [Compound 84, (R)—N-(1-(4-(1-(1-cyclopropylethyl)-6-oxo-1,6-dihydropyrimidin-5-yl)phenyl)cyclopropyl)-1-i-propyl-1H-pyrazolo[3,4-d]pyrimidine-6-carboxamide] | 1 nM
28 | CC(C)n1ncc2cnc(C(=O)NC3(c4ccc(-c5cncn([C@@H](C)C6CC6)c5=O)cc4)CC3)nc21 [Compound 85, (S)—N-(1-(4-(1-(1-cyclopropylethyl)-6-oxo-1,6-dihydropyrimidin-5-yl)phenyl)cyclopropyl)-1-i-propyl-1H-pyrazolo[3,4-d]pyrimidine-6-carboxamide] | 2 nM
29 | CC(C)n1ncc2cnc(C(=O)NC3(c4ccc(-c5cncn(CC6(C)CC6)c5=O)cc4)CC3)nc21 [Compound 86] | 1 nM
30 | CC(C)n1ncc2cnc(C(=O)NC3(c4ccc(-c5cncn([C@H]6C[C@H](F)C6)c5=O)cc4)CC3)nc21 [Compound 87, N-(1-(4-(1-(trans-3-fluorocyclobutyl)-6-oxo-1,6-dihydropyrimidin-5-yl)phenyl)cyclopropyl)-1-i-propyl-1H-pyrazolo[3,4-d]pyrimidine-6-carboxamide] | 11 nM
31 | CC(C)n1cncc(-c2ccc(C3(NC(=O)c4ncc5cnn([C@H](C)C6CC6)c5n4)CC3)cc2)c1=O [Compound 89, (R)-1-(1-cyclopropylethyl)-N-(1-(4-(1-i-propyl-6-oxo-1,6-dihydropyrimidin-5-yl)phenyl)cyclopropyl)-1H-pyrazolo[3,4-d]pyrimidine-6-carboxamide] | 5 nM
32 | CC(C)n1cncc(-c2ccc(C3(NC(=O)c4ncc5cnn([C@@H](C)C6CC6)c5n4)CC3)cc2)c1=O [Compound 90, (S)-1-(1-cyclopropylethyl)-N-(1-(4-(1-i-propyl-6-oxo-1,6-dihydropyrimidin-5-yl)phenyl)cyclopropyl)-1H-pyrazolo[3,4-d]pyrimidine-6-carboxamide] | 4 nM
33 | CC(C)n1cncc(-c2ccc(C3(NC(=O)c4ncc5cnn(C(C)C)c5n4)CC3)c(F)c2Cl)c1=O [Compound 91] | 11 nM
34 | CC(C)n1cncc(-c2cc(F)c(C3(NC(=O)c4ncc5cnn(C(C)C)c5n4)CC3)c(F)c2)c1=O [Compound 92] | 100 nM
35 | CC(C)n1cncc(-c2ccc(C3(NC(=O)c4ncc5cnn(C(C)C)c5n4)CC3)c(F)c2F)c1=O [Compound 93] | 6 nM
36 | CC(C)n1ncc2cnc(C(=O)NC3(c4cc(F)c(-c5cncn(CC6CC6)c5=O)cc4F)CC3)nc21 [Compound 94] | 3 nM
37 | CC(C)n1ncc2cnc(C(=O)NC3(c4ccc(-c5cncn(CC6CC6)c5=O)c(F)c4F)CC3)nc21 [Compound 95] | 3 nM

Same assay, conditions: U937 cells, hTNF-α 0.1 μg/mL + Z-VAD-FMK 50 μM, 20 hours, CellTiter-Glo

Row | SMILES | IC50
38 | CC(C)n1ncc2cnc(C(=O)NC3(c4ccc(-c5cncn([C@H]6C[C@@H](F)C6)c5=O)cc4)CC3)nc21 [Compound 88, N-(1-(4-(1-(cis-3-fluorocyclobutyl)-6-oxo-1,6-dihydropyrimidin-5-yl)phenyl)cyclopropyl)-1-i-propyl-1H-pyrazolo[3,4-d]pyrimidine-6-carboxamide] | 11 nM
